# Results as given in patent US20260365698A1, “STAPLED PEPTIDES FOR SENSITIZATION OF CANCER TO TREATMENT” (Purdue Research Foundation, priority 2022, published 2026).
# Bridge positions count the residues as written; N and C are the ends. Square brackets hold non-standard residues; d marks the D form. Peptide text beside a SMILES is read from it. S5 = C=CCCC[C@](C)(N)C(=O)O
# Legend:
# MafG = target: T1, MafG (Homo sapiens, UniProt O15525); test: Surface plasmon resonance (SPR); format: binding
# T1 construct: made in house; host or cells: E. coli Rosetta (DE3), vector pET15B, Ni-NTA purified
# T1 sequence (O15525 whole entry): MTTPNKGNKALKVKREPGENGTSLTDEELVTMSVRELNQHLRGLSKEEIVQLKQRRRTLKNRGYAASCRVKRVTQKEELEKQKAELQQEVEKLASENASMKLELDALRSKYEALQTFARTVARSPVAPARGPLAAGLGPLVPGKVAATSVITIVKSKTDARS
# Protocol: To determine the affinity of binding between MafG and compound NIS, surface plasmon resonance (SPR) was performed with biotin-labeled compound NIS and His-MafG. For all SPR-binding measurements, a Biacore 100-Instrument (Biacore-GE) was used. Binding between MafG and biotin-labeled compound NIS peptide was performed by first immobilizing the biotin N1S peptide on a SA chip (Cytiva, Marlborough, MA). The binding buffer (150 mM NaCl, 10 mM HEPES, pH 7.5, 1 mM MgCl2, 1 mM […] (TCEP) and 0.05% P-20) was used. Biotin-compound NIS (1 μM) was injected at a rate of 10 μl min^−1 for 10 minutes, immobilizing approximately 528 response units. Increasing concentrations of MafG (two-fold dilutions between 2.5 μM and 0.100 μM, including two blanks) were subsequently passed over the Biotin-compound N1S functionalized chip as well as a streptavidin reference surface. Multiple cycle analysis was carried out, without regenerating the chip between different MafG concentrations. Binding data was reference normalized and processed using Prism software, A one-site binding model was applied to the processed data set to determine binding parameters of MafG binding to N1S.
# [1] = target: T2, Nrf2-MafG-DNA ARE complex (Homo sapiens, UniProt O15525); test: Fluorescence polarization assay with Nrf2, MafG and FAM-labeled ARE; format: biochemical; details: 200 nM His-MBP-NRF2, 200 nM His-MafG, 20 nM FAM-labeled ARE; 'as low as'
# T2 construct: listing gives 93-aa segments
# T2 sequence (O15525 whole entry, one chain of several): as the sequence (O15525 whole entry) above
# Protocol: Briefly, a 96-well plate (VWR® Solid Bottom Assay Plates, 96-well, black) was used to encapsulate each fluorescence polarization reaction. Unless otherwise stated (i.e., ARE only, ARE+MafG), each 100-μL reaction contained 200 nM purified recombinant His-MBP-NRF2, 200 nM purified recombinant His-MafG, various concentrations of molecule, and 20 nM 5′ FAM-labeled ARE all together in 1× PBS solution.
# First, NRF2 was incubated with molecule for 5 minutes with shaking, followed by the addition of MafG for another 5-minute incubation. Finally, ARE was added, and the MafG-NRF2-ARE system was incubated for 10 minutes with shaking. After incubation, the plate was placed into a plate reader (Molecular Devices SpectraMax® iD5 Multi-Mode Microplate Reader). The fluorescence polarization measurement was performed at excitation/emission values of 470:525 nm, respectively. The samples were in triplicate (n=3).
# A549 cells = test: Confocal microscopy of FITC-labeled peptides, cell permeability; format: cell-based
# Protocol: To determine whether this was a result of poor cell permeability by compounds N2S and N3S, fluorophore labeled versions of these peptides were generated, and confocal microscopy was used to determine the abilities of these peptides to enter cells (FIG. 5C).
# Briefly, A549 cells at 9.5×10^4 cells/ml in 600 μl media were plated on 10 mm glass-bottomed, 24-well plates (Chemglass Life Sciences Cell Culture Plate, 24-Well, Fisher Scientific, Waltham, MA) and cultured for overnight at 37 °C, 5% CO2, in complete growth medium (RPMI supplemented with 10% fetal calf serum, L-glutamine, and non-essential amino acids). The next day, cells were treated with fresh, pre-warmed complete growth medium supplemented with the desired FITC-labeled peptide or DMSO vehicle control at a final concentration of 100 μM FITC labeled peptide and 1% DMSO. After 90 minutes of treatment, cells were washed three times in warm PBS to remove excess peptide from the cell surface and left in modified Krebs-Ringer buffer solution [KRBH: 134 mM NaCl. 3.5 mM KCl. 1.2 mM KH2PO4, 0.5 mM MgSO4, 1.5 mM CaCl2), 5 mM NaHCO3, 10 mM HEPES (pH 7.4)] containing Hoechst stain at 1 μg/ml. Cells were immediately analyzed under a Nikon A1 confocal microscope (Resonant). The images were taken at 20× magnification with fluorescence excitation wavelengths at 409 for the Hoechst and 488 for the FITC. Images were processed using NIS-Elements AR. Dietrich et al., Cell permeable stapled peptide inhibitor of Wnt signaling that targets 0-catenin protein-protein interactions, Cell Chemical Biology 24(8): 958-968.e5 (2017); Dougherty et al., Enhancing the cell-permeability of stapled peptides with a cyclic cell-penetrating peptide, J Medicinal Chemistry 62(22): 10098 (2019).
# Hemolysis assay = format: cell-based; details: red blood cells
# Protocol: (§1) Finally, a hemolysis assay was performed based on a method described in Hostetler et al. (2021), supra. The peptides were tested at a final concentration of 100 μM and an average of 0.3% hemolysis was observed (data not shown).
# red blood cells = test: Hemolysis assay; format: cell-based; details: 100 μM
# Protocol: as §1
smiles,measurement,setting,value
CC[C@H](C)[C@H](NC(C)=O)C(=O)N[C@H](C(=O)N[C@@H](CCC(=O)O)C(=O)N[C@@H](CC(C)C)C(=O)N[C@@H](CCC(=O)O)C(=O)N[C@@]1(C)CCCC=CCCC[C@@](C)(C(=O)N[C@@H](CC(C)C)C(=O)N[C@@H](CCCCN)C(=O)N[C@@H](CC(=O)O)C(=O)N[C@@H](CCC(=O)O)C(=O)N[C@@H](CCCCN)C(=O)N[C@@H](CCC(=O)O)C(N)=O)NC(=O)[C@H](CC(=O)O)NC(=O)[C@H](CC(C)C)NC(=O)[C@H](CC(=O)O)NC1=O)C(C)C [N1S] (Ac-IVELE[S5]DLD[S5]LKDEKE-NH2; staple 6-10),Kd,"MafG; biotin-labeled N1S on SA chip, His-MafG passed over, one-site binding model, read-out: dissociation constant",337 nM
same,direct binding to MafG,MafG; summary of in vitro analysis,directly binds MafG
same,lowest concentration decreasing binding of the heterodimer to the DNA,[1],0.2 µM
same,cellular and nuclear permeability,"A549 cells; FITC-labeled peptide, 100 μM, 90 minutes, A549 cells",good
same,entry into cells,A549 cells; summary statement,can enter cells
same,hemolysis at 100 µM,Hemolysis assay,0.3%
same,toxicity to red blood cells,red blood cells,no toxicity
